Patent US20260256728A1, “TREATMENT FOR ASYMPTOMATIC STARGARDT DISEASE PATIENTS” (priority 2024, published 2026)
“Also recorded” adds a separate entry of the source.

Assays:
[1] = system: asymptomatic Stargardt disease patients; assay: TEASE-3 fundus autofluorescence (FAF) imaging; type: in vivo, human; conditions: after two to four years of treatment, three patients
Protocol: (§1) The tolerability and effects of ALK-001 (gildeuretinol acetate) in Stargardt Disease (Clinical trial group 3, also known as TEASE-3) study was an open-label, multicenter, case control study designed to evaluate the efficacy and safety of gildeuretinol acetate on the progression of Stargardt disease in asymptomatic individuals. The trial was conducted at multiple sites in the United States.
To assess the safety and efficacy of gildeuretinol acetate in preventing vision loss in asymptomatic individuals, gildeuretinol acetate 14 mg capsules were administered to individuals showing early signs of retinal damage while maintaining approximately 20/20 vision and no subjective loss of vision. […]
(§2) Disease progression was monitored by best-corrected visual acuity (BCVA) reported in number of Early Treatment Diabetic Retinopathy Study (ETDRS) letters, fundus autofluorescence (FAF) imaging, loss of photoreceptors (as measured by the ellipsoid zone band loss) by optical coherence tomography (OCT) and retinal sensitivity by microperimetry.

[2] = TEASE-3 plasma gildeuretinol; type: in vivo, human; conditions: 14 mg daily
Protocol: as §1
(§3) To assess the safety and efficacy of gildeuretinol acetate in preventing vision loss in asymptomatic individuals, gildeuretinol acetate 14 mg capsules were administered to individuals showing early signs of retinal damage while maintaining approximately 20/20 vision and no subjective loss of vision. […] Based on the above family history and clinical observations, the asymptomatic individuals were likely to develop retinal lesions, loss of photoreceptors, drops in retinal sensitivity, loss of visual acuity, indicating the onset of symptoms, i.e. a progression to the symptomatic phase, including vision loss within two years, mirroring the progression observed in their older siblings.
(§4) Patients received gildeuretinol acetate 14 mg capsules, to be taken orally once daily. Trial visits occurred every 6 months approximately following screening and treatment start visits.

[3] = system: atrophic retinal lesions in Stargardt disease patients; assay: TEASE-1 growth rate of atrophic retinal lesions by fundus autofluorescence imaging; type: in vivo, human; parameters: relative slower growth rate of atrophic retinal lesions versus control / Percentage Slowing of Atrophic Retinal Lesion Growth Rate: concentration or dose not given beside the values
Protocol: The Tolerability and Effects of gildeuretinol acetate in Stargardt Disease (Clinical trial group 1, also known as TEASE-1) was a 24-month, multicenter, double-masked, placebo-controlled trial designed to evaluate the efficacy and safety of daily oral gildeuretinol acetate in slowing the growth of atrophic retinal lesions in Stargardt disease patients. The trial was conducted at multiple sites in the United States (NCT02402660).
Patients 12 years or older, clinically diagnosed with Stargardt disease, with at least one ABCA4 mutation, at least one eye presenting with well-demarcated areas of reduced fundus autofluorescence including retinal atrophic lesions, and with any visual acuity, were enrolled.
Patients were randomized to gildeuretinol acetate 14 mg capsules, gildeuretinol acetate 24 mg capsules, or placebo capsules, to be taken once daily for one year. After one year, 50% of randomly selected patients receiving placebo were crossed over in a 1:1 ratio to gildeuretinol acetate 14 mg capsules or gildeuretinol acetate 24 mg capsules for a second year.
Deidentified retinal images of patients not enrolled in the trial were included as a natural history cohort. This natural history cohort comprised patients diagnosed with Stargardt disease of any age, with two or more longitudinal fundus autofluorescence images taken at least four months apart over a maximum period of 2.5 years.
[…] retinal imaging comparing gildeuretinol acetate versus the untreated arm ([…]). Only well-delineated and homogeneous retinal atrophic lesions ≥0.2 mm^2 with a summed area ≥0.5 mm^2 were included in the primary analysis.
The primary endpoint analysis used a linear mixed-effect model (LMEM) with repeated measures, conferring a higher power to detect smaller effects. All observed data, including both eyes, were utilized. Treatment duration was computed as a continuous measure for each visit based on years since randomization. Adjustments for baseline retinal atrophy used the baseline atrophic retinal lesion size as a fixed effect in the LMEM. Additional fixed effects included treatment arm, treatment duration, and interaction between the treatment arm and treatment duration. Random effects included patient, eye, grader to adjust for correlation between eyes within a patient, graders' assessment of an eye, and observations of the same eye over time. A random effect slope term was added to the effect of treatment duration. Patients who crossed over to gildeuretinol acetate after year one were included in the untreated arm from baseline to year one, then in the gildeuretinol acetate arm from […] upon crossing over to gildeuretinol acetate. The full analysis set (FAS) comprised all randomized patients who received at least one dose of the study drug.
[…] All available data between 0 and 24 months was used to compute the slope of each segment. The primary efficacy endpoint was the slope of the second segment. No constraints were imposed on the Y-intercept. All growth rates were calculated on a per-year basis.
No imputations were made for missing data because the LMEM yields valid inferences under the assumption of a missing-at-random mechanism. The two-sided P-value of the primary efficacy endpoint was calculated using Kenward-Roger's method for handling denominator degrees of freedom and small samples. The goodness of fit of the linear mixed-effect model was provided as R-squared (R^2). Analyses were conducted in R (R Core Team, 2020). Prespecified, unadjusted sensitivity analyses of the primary efficacy endpoint included growth rates of untransformed areas of retinal atrophy and growth rates using a single-slope from baseline until the last available visit. Post-hoc unadjusted analyses were performed to evaluate the potential contribution of patient characteristics.

[4] = TEASE-3 safety; type: in vivo, human; conditions: three patients, 14 mg daily
Protocol: The tolerability and effects of ALK-001 (gildeuretinol acetate) in Stargardt Disease (Clinical trial group 3, also known as TEASE-3) study was an open-label, multicenter, case control study designed to evaluate the efficacy and safety of gildeuretinol acetate on the progression of Stargardt disease in asymptomatic individuals. The trial was conducted at multiple sites in the United States. Patients received gildeuretinol acetate 14 mg capsules, to be taken orally once daily. Trial visits occurred every 6 months approximately following screening and treatment start visits. Ocular safety was assessed by retinal imaging and ocular exam, which included evaluation of the anterior and posterior segments and the lens. Systemic safety was assessed by physical exam, comprehensive clinical labs (biochemistry, hematology, lipids), and 12-lead ECG.

[5] = system: asymptomatic Stargardt disease patients; assay: TEASE-3 best-corrected visual acuity (BCVA); type: in vivo, human
Protocol: as §1, §3
Testing asymptomatic individuals in the absence of a potential intervention is, therefore, controversial. All asymptomatic Stargardt disease patients were thus administered gildeuretinol acetate. Specific dose levels were not disclosed to the patients. Disease progression was compared to the symptomatic siblings with identical genetic mutations when aged-matched who had not received gildeuretinol acetate.
as §4, §2
Measurements from the left and right eye for each patient were averaged for each visit to produce a single statistical unit for both eyes. For segmented linear regressions, knot times were selected so that three visits were included in the first segment.

[6] = in vivo

SMILES: [2H]C([2H])([2H])C(/C=C/C=C(C)/C=C/C1=C(C)CCCC1(C)C)=C\COC(C)=O [gildeuretinol acetate]
- disease progression / changes by FAF imaging [1]: none of the three treated Stargardt disease patients exhibited changes by FAF; also recorded: no observable disease progression; also recorded: no visible disease progression by fundus autofluorescence imaging occurred
- replacement of plasma vitamin A sustained throughout the treatment period [2]: Over 80%
- replacement of plasma vitamin A (retinol) with gildeuretinol ([2]; after the first two months, all three participants): 80%
- growth rate of atrophic retinal lesions (square root area) ([3]; 14 to 24 mg daily, slope 6 to 24 months, 34 patients): 0.19 mm/year
- relative slower growth rate of atrophic retinal lesions versus control ([3]; P<0.001, R^2=0.9996): 21%
- difference in growth rate of atrophic retinal lesions versus control ([3]; control 0.24 mm/year (placebo + natural history), 95% CI 0.03 to 0.07): 0.05 mm/year
- prespecified primary efficacy endpoint (mean growth rate of atrophic retinal lesions vs placebo and natural history) ([3]; in vivo): met its prespecified primary efficacy endpoint
- effect on expansion of retinal atrophic lesions / retinal degeneration ([3]; symptomatic Stargardt disease patients, once daily up to 24 months): slowed the expansion of retinal atrophic lesions; also recorded: slows retinal degeneration
- adverse reactions linked to excessive or insufficient vitamin A (delays in dark adaptation, night blindness) [4]: None of the three Stargardt disease asymptomatic patients exhibited adverse reactions
- effect on vision loss ([5]; asymptomatic Stargardt disease patients, 14 mg daily, up to four years): effectively prevented vision loss and further retinal damage; also recorded: completely prevented vision loss; also recorded: arrested loss of vision and retinal pathology
- average BCVA improvement versus untreated siblings, lines of vision on the ETDRS eyechart ([5]; in vivo): four
- visual acuity (Snellen) ([5]; treated asymptomatic patients): ~ 20/20 and approximately 20/20
- BCVA ([5]; treated siblings, 14 mg daily, 2-4 years): 88±4 ETDRS letters
- average BCVA improvement versus untreated age-matched siblings ([5]; untreated siblings 66±10 ETDRS letters): 22±13 letters
- Patients experiencing event (%): Ear infection [6]: 1 (10.0)
- Patients experiencing event (%): Gastroenteritis viral [6]: 0
- Patients experiencing event (%): Herpes zoster [6]: 0
- Patients experiencing event (%): Skin infection [6]: 0
- Patients experiencing event (%): Upper respiratory tract infection [6]: 2 (20.0)
- changes in visual acuity [6]: No changes in visual acuity were observed
- discontinuation of treatment due to side effects [6]: no patient discontinued treatment due to side effects
- serious adverse events associated with treatment [6]: No serious adverse events
- severity of adverse events [6]: mild or moderate
